Experimental data as given in patent publication US9572807B2, “Protocols for treatment of major depressive disorder (MDD)” (NEURALSTEM, INC., priority 2014, dated 2017).

What was measured:
Assay type in all cases: in vivo, human
[1] = system: patients with symptomatic MDD; assay: Montgomery-Asberg Depression Rating Scale (MADRS), Phase 1B study; settings: for MADRS value: FIG. 2; for Cohen's d value, MADRS (ANCOVA): all test groups (n=18) vs placebo (n=6)
Protocol: (§1) A double-blind, placebo-controlled, multiple-ascending-dose study employing the compound of formula (1) was performed in patients with symptomatic MDD. Twenty-four subjects were recruited, with their diagnosis and illness severity confirmed through an independent, remote SAFER interview (Targum, S. D., et al., CNS Neurosci. Ther. (2008) 14:2-9) from the Massachusetts General Hospital (MGH) Clinical Trials Network and Institute (CTNI) raters. Each patient underwent a screening for eligibility (Day −37 to Day −6 or −3) and eligible patients were admitted into the unit on Day −5 to complete their wash-out and be reconfirmed for eligibility and for baseline assessments. The patients received daily dosing of formula (1) or placebo for 28 days starting on Day 1 and were followed for safety, pharmacokinetics (PK) and pharmacodynamics (PD) until discharge. At the conclusion of in-house dosing (Day 28), patients remained in the unit for up to 3 additional days, at the psychiatrist's discretion. On Day 35 (±3), Day 42 (±3), Day 49 (±3) and Day 70 (±3) outpatient follow-up visits took place. Patients returned to the unit for extensive follow-up on Day 56 (±3) and Day 84 (±3) (End-of-study).
(§2) The subjects were randomized into four groups of 6 patients each to receive 40 mg of formula (1) per dose administered orally in gelatin capsules once daily, twice daily or three times daily to provide 40 or 80 or 120 mg daily of formula (1) or placebo for 28 days. Each cohort included at least 3 female subjects. In this example, qEEG was used to characterize pharmacodynamic effects.
(§3) In this example, the results of the study of Example 1 were evaluated by the efficacy assessments that included the Montgomery-Asberg Depression Rating Scale (MADRS), the Clinician Global Impression-Improvement (CGI-I), the Symptoms of Depression Questionnaire (SDQ) and the Cognitive and Physical Functioning Questionnaire (CPFQ). […] These improvements persisted over time during the follow-up for MADRS, SDQ and CPFQ.
(§4) Baseline values were adjusted for initial differences and the results for the placebo group (n=6) and the tested groups (n=18) were collapsed. The sizes of the effects were estimated as Cohen's d group mean differences where d=0.20 indicates only a small difference, d=0.50 indicates a medium difference and d=0.80 indicates a large difference. Cohen's d values are described in Cohen, J. (1988) Statistical Power Analysis for the Behavioral Sciences (2nd ed.), Lawrence Erlbaum Associates. D values are used when the scale of a dependent variable is not inherently meaningful, the difference between means are considered in standardized units. That is, effect size is measured in terms of the number of standard deviations by which the means differ. Two commonly used measures are Hedges' g and Cohen's d. Both of these measures consist of the difference between means divided by the standard deviation. They differ only in that Hedges' g uses the version of the standard deviation formula in which division is by N−1, whereas Cohen's d uses the version in which division is by N.
(§5) Covariance is a measure of how much two variables change together and how strong the relationship is between them (Lenth, R. V., The American Statistician (2001) 55:187-193). Analysis of covariance (ANCOVA) is a general linear model which blends analysis of variance (ANOVA) and regression. ANCOVA evaluates whether population means of a dependent variable (DV) are equal across levels of a categorical independent variable (IV), while statistically controlling for the effects of other continuous variables that are not of primary interest, known as covariates (CV). Therefore, when performing ANCOVA, the DV means are adjusted to what they would be if all groups were equal on the CV. In the CGI-I assay, Day 7 was used as the baseline value; in the remaining assays, Day 0 was used as baseline.

[2] = system: patients with symptomatic MDD; assay: Cognitive and Physical Functioning Questionnaire (CPFQ), Phase 1B study; settings: for Cohen's d value, CPFQ (ANCOVA): all test groups (n=18) vs placebo (n=6)
Protocol: as §1, §2, §3, §4, §5

[3] = system: patients with symptomatic MDD; assay: Symptoms of Depression Questionnaire (SDQ), Phase 1B study; settings: for Cohen's d value, SDQ (ANCOVA): all test groups (n=18) vs placebo (n=6)
Protocol: as §1, §2, §3, §4, §5

[4] = system: patients with symptomatic MDD; assay: Overall efficacy assessment in Phase 1B study
Protocol: as §1, with “On Day 35 (±3), Day 42 (±3), Day 49 (±3) and Day 70 (±3) outpatient follow-up visits took place. Patients returned to the unit for extensive follow-up on Day 56 (±3) and Day 84 (±3) (End-of-study).” left out
In this example, the results of the study of Example 1 were evaluated by the efficacy assessments that included the Montgomery-Asberg Depression Rating Scale (MADRS), the Clinician Global Impression-Improvement (CGI-I), the Symptoms of Depression Questionnaire (SDQ) and the Cognitive and Physical Functioning Questionnaire (CPFQ). […]

[5] = Day 14, 1x = 40 mg/day oral (n=6)
[6] = Day 14, 2x = 80 mg/day oral (n=6)
[7] = Day 14, 3x = 120 mg/day oral (n=6)
[8] = Day 14, all three dose groups pooled (n=18)
[9] = Day 28, 1x = 40 mg/day oral (n=6)
[10] = Day 28, 2x = 80 mg/day oral (n=6)
[11] = Day 28, 3x = 120 mg/day oral (n=6)
[12] = Day 28, all three dose groups pooled (n=18)
[13] = Day 56 (follow-up after 28 days dosing), 1x = 40 mg/day oral
[14] = Day 56 (follow-up after 28 days dosing), 2x = 80 mg/day oral
[15] = Day 56 (follow-up after 28 days dosing), 3x = 120 mg/day oral
[16] = Day 56 (follow-up after 28 days dosing), all three dose groups pooled (n=18)
[17] = Day 84 (follow-up after 28 days dosing), 1x = 40 mg/day oral
[18] = Day 84 (follow-up after 28 days dosing), 2x = 80 mg/day oral
[19] = Day 84 (follow-up after 28 days dosing), 3x = 120 mg/day oral
[20] = Day 84 (follow-up after 28 days dosing), all three dose groups pooled
[21] = Day −5 (baseline before dosing), 1x = 40 mg/day group
[22] = Day −5 (baseline before dosing), 2x = 80 mg/day group
[23] = Day −5 (baseline before dosing), 3x = 120 mg/day group
[24] = Day −5 (baseline before dosing), all three dose groups pooled (n=18)

`CC(C)CCNc1ncccc1C(=O)N1CCN(Cc2ccccc2)CC1` [formula (1)] showed an MADRS value ([1]; 40 mg/day, controls (n=2) 23.5) of 12.5, an MADRS value ([1]; 80 mg/day, controls (n=2) 18) of 15 and an MADRS value ([1]; 120 mg/day, controls (n=2) 18) of 16. For the same molecule, the “MADRS Means” value [1, 5] was 20.1667, the “MADRS Means” value [1, 6] was 18.8333 and the “MADRS Means” value [1, 7] was 15.8333. For the same molecule, the “MADRS Means” value [1, 8] was 18.2778, the “MADRS Means” value [1, 9] was 12.6667 and the “MADRS Means” value [1, 10] was 15. The “MADRS Means” value [1, 11] was 16.5, the “MADRS Means” value [1, 12] was 14.7222 and the “Cohen's d value, MADRS (ANCOVA)” value ([1]; Day 30) was 0.95. For the same molecule, the “MADRS Means” value [1, 13] was 14.3333, the “MADRS Means” value [1, 14] was 12 and the “MADRS Means” value [1, 15] was 11.3333. The “MADRS Means” value [1, 16] was 12.5556, the “MADRS Means” value [1, 17] was 15 and the “MADRS Means” value [1, 18] was 12. For the same molecule, the “MADRS Means” value [1, 19] was 10.8, the “MADRS Means” value [1, 20] was 12.7059 and the “Cohen's d value, MADRS (ANCOVA)” value ([1]; Day 85) was 0.84. For the same molecule, the “MADRS Means” value [1, 21] was 24.8333, the “MADRS Means” value [1, 22] was 24.6667 and the “MADRS Means” value [1, 23] was 24.3333. For the same molecule, the “MADRS Means” value [1, 24] was 24.6111, the CPFQ value ([2]; 80 mg/day, FIG. 4, controls (n=2) 4.6) was 2.6 and the “Cohen's d value, CPFQ (ANCOVA)” value ([2]; 30 days) was 0.94. The “CPFQ Means” value [2, 5] was 3.3095, the “CPFQ Means” value [2, 6] was 3.2143 and the “CPFQ Means” value [2, 7] was 3. For the same molecule, the “CPFQ Means” value [2, 8] was 3.1746, the “CPFQ Means” value [2, 9] was 2.7857 and the “CPFQ Means” value [2, 10] was 2.6905. The “CPFQ Means” value [2, 11] was 2.6667, the “CPFQ Means” value [2, 12] was 2.7143 and the “CPFQ Means” value [2, 13] was 2.9048. The “CPFQ Means” value [2, 14] was 2.3571, the “CPFQ Means” value [2, 15] was 2.5714 and the “CPFQ Means” value [2, 16] was 2.6111. The “CPFQ Means” value [2, 17] was 2.8571, the “CPFQ Means” value [2, 18] was 2.4286 and the “CPFQ Means” value [2, 19] was 2.3714. The “CPFQ Means” value [2, 20] was 2.563, the “Cohen's d value, CPFQ (ANCOVA)” value ([2]; Day 85) was 1.20 and the “CPFQ Means” value [2, 21] was 4.0238. The “CPFQ Means” value [2, 22] was 3.4762, the “CPFQ Means” value [2, 23] was 3.7143 and the “CPFQ Means” value [2, 24] was 3.7381. For the same molecule, the SDQ score ([3]; 40 mg/day, FIG. 3, placebo (n=2) 3.1) was 2.5, the SDQ score ([3]; 80 mg/day, FIG. 3, controls (n=2) 3.5) was 2.7 and the “SDQ score versus controls” value ([3]; 120 mg/day, at 28 days, FIG. 3) was “slightly higher than controls”. For the same molecule, the “SDQ Means” value [3, 5] was 3.1174, the “SDQ Means” value [3, 6] was 2.8485 and the “SDQ Means” value [3, 7] was 2.822. For the same molecule, the “SDQ Means” value [3, 8] was 2.9293, the “SDQ Means” value [3, 9] was 2.5795 and the “SDQ Means” value [3, 10] was 2.6856. For the same molecule, the “SDQ Means” value [3, 11] was 2.6439, the “SDQ Means” value [3, 12] was 2.6364 and the “Cohen's d value, SDQ (ANCOVA)” value ([3]; Day 30) was 0.90. The “SDQ Means” value [3, 13] was 2.6023, the “SDQ Means” value [3, 14] was 2.3371 and the “SDQ Means” value [3, 15] was 2.5909. The “SDQ Means” value [3, 16] was 2.5101, the “SDQ Means” value [3, 17] was 2.6364 and the “SDQ Means” value [3, 18] was 2.4508. The “SDQ Means” value [3, 19] was 2.4318, the “SDQ Means” value [3, 20] was 2.5107 and the “Cohen's d value, SDQ (ANCOVA)” value ([3]; Day 85) was 1.10. For the same molecule, the “SDQ Means” value [3, 21] was 3.4508, the “SDQ Means” value [3, 22] was 3.2652 and the “SDQ Means” value [3, 23] was 3.4242. For the same molecule, the “SDQ Means” value [3, 24] was 3.3801, the “Depressive and cognitive symptoms across all measures” value ([4]; Day 28, two lower doses (40 mg/day and 80 mg/day)) was “clinically meaningful reduction in depressive and cognitive symptoms across all measures” and the “Effect on condition of patients, further analysis” value ([4]; highest dose (120 mg/day)) was “effective in improving the condition of these patients”.
